Measurements reported in US20080275028A1 (priority 2004, published 2008).

Biological target: T1, alpha7 nicotinic acetylcholine receptor (Rattus norvegicus, UniProt Q05941)
T1 construct: expressed in transfected cells
Test: Functional FLIPR assay (calcium), alpha7 nAChR stably expressed in GH4C1 cells
Assay type: cell-based
Conditions: agonist, concentration range 0.001 to 30 microM
From the text: Rat GH4C1 cells were then transfected with the rat receptor, cloned and analyzed for functional alpha7 nicotinic receptor expression employing a FLIPR assay to measure changes in intracellular calcium concentrations.
The FLIPR system allows the measurements of real time Ca^2+-concentration changes in living cells using a Ca^2+ sensitive fluorescence dye (such as Fluo4). This instrument enables the screening for agonists and antagonists for alpha 7 nAChR channels stably expressed in GH4C1cells.
GH4C1 cells stably transfected with rat-alpha7-nAChR (see above) were used. These cells are poorly adherent and therefore pretreatment of flasks and plates with poly-D-lysine was carried out. Cells are grown in 150 cm^2 T-flasks, filled with 30 ml of medium at 37° C. and 5% CO2.
EC50 and IC50 values were calculated using the IDBS XLfit4.1 software package employing a sigmoidal concentration-response (variable slope) equation:
Y=Bottom+((Top-Bottom)/(1+((EC50/X) ̂ HillSlope))
The compounds were tested using the functional FLIPR primary screening assay employing the stable recombinant GH4C1 cell line expressing the alpha7 nAChR. Hits identified were validated further by generation of concentration-response curves.

T1 sequence (Q05941 23-502): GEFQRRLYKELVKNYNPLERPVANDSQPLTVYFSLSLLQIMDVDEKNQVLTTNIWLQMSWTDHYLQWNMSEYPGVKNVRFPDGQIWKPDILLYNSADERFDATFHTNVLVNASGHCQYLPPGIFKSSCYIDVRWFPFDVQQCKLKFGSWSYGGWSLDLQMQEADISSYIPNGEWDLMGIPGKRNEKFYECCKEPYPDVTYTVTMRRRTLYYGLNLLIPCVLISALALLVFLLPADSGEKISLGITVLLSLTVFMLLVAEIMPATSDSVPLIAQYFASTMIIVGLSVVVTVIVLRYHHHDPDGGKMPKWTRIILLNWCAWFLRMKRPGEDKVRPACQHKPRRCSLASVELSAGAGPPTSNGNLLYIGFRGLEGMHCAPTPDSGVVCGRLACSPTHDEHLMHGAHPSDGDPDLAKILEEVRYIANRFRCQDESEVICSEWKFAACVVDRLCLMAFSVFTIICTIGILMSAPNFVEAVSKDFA

In the case of `C[N+]1(C)CCN(c2ccccc2)CC1` [DMPP], the EC50 is reported as 980 ± 470 nM.
